# Patent US9457033B2, “Steroid alkaloids and uses thereof as antimicrobial agents against electron transport-deficient microbes and as potentiators for antimicrobial agents against pathogenic bacteria” (priority 2011, dated 2016)
# What was measured:
# [1] = test system: S. aureus SCV NewbouldΔhemB; experiment: microbe, parasite or virus in culture; type: cell-based; details: Staphylococcus aureus, 24 h, read-out: Diameter of inhibition zone
# S. aureus SCV CF07S = experiment: microbe, parasite or virus in culture; type: cell-based; details: Staphylococcus aureus, SCVCF07S; Tomatidine (50 μg); menadione auxotrophy; 24 hours at 37° C. with O2; DMSO control 0; read-out: Diameter of inhibition zone
# S. aureus SCV CF6A-S = experiment: microbe, parasite or virus in culture; type: cell-based; details: Staphylococcus aureus, SCVCF6AS; Tomatidine (50 μg); thymidine auxotrophy; 24 hours at 37° C. with O2; DMSO control 0; read-out: Diameter of inhibition zone
# SCV NewbouldΔhemB = experiment: Tomatidine susceptibility with supplemental hemin, spotted on agar (FIG. 1A); type: cell-based, Staphylococcus aureus; details: in the presence of supplemental hemin
# Protocol: (§1) Normal (Newbould, CF07-L and CF1A-L), and SCV (NewbouldΔhemB (in the presence and absence of hemin), CF07-S (in the presence and absence of menadione) and CF1D-S) S. aureus strains were treated with various concentrations of tomatidine (4, 2, 1, 0.5, 0.25, 0.12 and 0.06 μg/ml) for 48 h in the Brain Hearth Infusion (BHI) medium at 35° C. and 10 μl samples were thereafter spotted on agar plated which were further incubated for 48 h before a picture was taken.
# SCV CF07-S [2] = experiment: Tomatidine susceptibility with supplemental menadione, spotted on agar (FIG. 1A); type: cell-based, Staphylococcus aureus; details: in the presence of supplemental menadione
# Protocol: as §1
# normal CF07-L strain = experiment: Time-kill experiment (FIG. 1B); type: cell-based, Staphylococcus aureus; details: tomatidine 16 μg/ml
# Protocol: (225 RPM), bacteria were sampled, serially diluted and plated on tryptic soy agar (TSA) for colony-forming unit (CFU) determinations (i.e., viable bacterial counts). Plates were incubated for 24 or 48 h at 35° C. for normal and SCV strains, respectively. The antibacterial activities of tomatidine and control antibiotics (erythromycin (a bacteriostatic macrolide) and ciprofloxacin (a bactericidal fluoroquinolone) against the normal CF07-L strain and the SCV CF07-S as a function of time are presented in FIGS. 1B and 1C, respectively. The antibacterial activity of tomatine against the SCV strain was also evaluated (TN in FIG. 1C).
# [3] = test system: protein, DNA, RNA and cell wall peptidoglycan biosynthesis in ATCC 29213; experiment: Macromolecular biosynthesis assay, incorporation of radiolabeled precursors; type: cell-based, Staphylococcus aureus
# [4] = test system: SCV strain CF07-S in shCFTR cells; experiment: Intracellular infection of polarized CF airway epithelial cells (shCFTR); type: cell-based, Staphylococcus aureus; details: 1.25 and 12.5 μg/ml of tomatidine; 48 h post-internalization; FIG. 4B
# [5] = test system: S. aureus ATCC 29213 alone; experiment: Viability in mono-culture, CAMHB; type: cell-based, Staphylococcus aureus; details: SA alone + TO at 8 μg/ml
# Text: Bacteria were sampled, serially diluted and plated on tryptic soy agar for CFU determinations. […] Mannitol-salt agar plates were used to selectively evaluate S. aureus CFU when in co-culture with P. aeruginosa.
# [6] = test system: Bacillus cereus ATCC 11778; experiment: Agar diffusion method, zone of inhibition; type: cell-based; details: ATCC11778, Tomatidine (35 μg), 24 hours at 35° C., DMSO 0, read-out: Diameter of inhibition zone
# Protocol: (§2) The effect of tomatidine on the growth of Bacillus subtilis strains ATCC 6633 and ATCC 9372, Bacillus cereus strain ATCC 11778 and Listeria monocytogenes strain ATCC 13932 was tested by an agar diffusion method. Bacillus spp. strains and Listeria monocytogenes were spread on the surface of Mueller-Hinton agar and Mueller-Hinton supplemented with 5% sheep blood, respectively. 35 μg of tomatidine diluted in DMSO or DMSO alone were added to wells for diffusion and plates were incubated for 24 hours at 35° C. The diameters of the zones of inhibition around the wells (for the DMSO control and for the tomatidine well) were measured and reported in mm in TABLE 12 below.
# [7] = test system: Bacillus subtilis ATCC 6633; experiment: Agar diffusion method, zone of inhibition; type: cell-based; details: ATCC6633, Tomatidine (35 μg), 24 hours at 35° C., DMSO 5, read-out: Diameter of inhibition zone
# Protocol: as §2
# [8] = test system: Bacillus subtilis ATCC 9372; experiment: Agar diffusion method, zone of inhibition; type: cell-based; details: ATCC9372, Tomatidine (35 μg), 24 hours at 35° C., DMSO 0, read-out: Diameter of inhibition zone
# Protocol: as §2
# [9] = test system: Listeria monocytogenes ATCC 13932; experiment: Agar diffusion method, zone of inhibition; type: cell-based; details: ATCC13932, Tomatidine (35 μg), 24 hours at 35° C., 5% sheep blood, DMSO 0, read-out: Diameter of inhibition zone
# Protocol: as §2
# [10] = test system: S. aureus SCVs (NewbouldΔhemB, CF07-S and CF1D-S); experiment: MIC, microdilution in BHI 48 h, summary for SCVs; type: cell-based, Staphylococcus aureus; details: Staphylococcus aureus, read-out: MIC against all SCVs
# [11] = test system: colonies isolated from S. aureus ATCC 29213 cultures exposed to gentamicin; experiment: Gentamicin susceptibility of colonies isolated from 24 h-cultures exposed to gentamicin; type: cell-based, Staphylococcus aureus
# Protocol: Accordingly, colonies isolated from 24 h-cultures exposed to gentamicin were often normal-growing bacteria with a decreased susceptibility to gentamicin (MIC ranging from 1 to 4 μg/ml) or SCVs (MIC for gentamicin ranging from 4 to 8 μg/ml). […] From these time-kill experiments, isolated colonies obtained from cultures exposed to gentamicin combined or not with 8 μg/ml tomatidine were analyzed for their susceptibility to gentamicin. When ATCC 29213 was exposed to gentamicin alone, the emergence of numerous normal-growing isolates showing decreased susceptibility to gentamicin (MIC ranging from 1 to 4 mg/L) was easily detected.
# SCV CF07-S [12] = experiment: Broth growth with gentamicin or tomatidine, visually evaluated (FIG. 5B); details: gentamicin at 4 μg/ml or tomatidine at 0.12 μg/ml alone, 48 h
# [13] = test system: heterogeneous population of normal strain CF07-L and SCV CF07-S; experiment: Broth growth with gentamicin and tomatidine, visually evaluated (FIG. 5C); details: combination of gentamicin at 4 μg/ml and tomatidine at 0.12 μg/ml
# [14] = colonies from 24 h-cultures exposed to gentamicin
compound,measurement,setting,value
"C[C@H]1CC[C@]2(NC1)O[C@H]1C[C@H]3[C@@H]4CC[C@H]5C[C@@H](O)CC[C@]5(C)[C@H]4CC[C@]3(C)[C@H]1[C@@H]2C [Tomatidine, tomatidine]",zone of inhibition at 50 µg/disc,[1],23.5 mm
same,zone of inhibition at 50 µg/disc,S. aureus SCV CF07S,22.5 mm
same,zone of inhibition at 50 µg/disc,S. aureus SCV CF6A-S,23 mm
same,susceptibility to tomatidine,SCV NewbouldΔhemB,abolished
same,susceptibility to tomatidine,SCV CF07-S [2],abolished
same,time-kill effect on growth,normal CF07-L strain,does not affect the growth
same,biosynthesis of macromolecules,"[3]; in the presence of 20 μg HQNO/ml, all tested concentrations above 0.12 μg/ml, FIG. 3C",decreased the biosynthesis of all macromolecules
same,synthesis of macromolecules,"[3]; tomatidine up to 125 μg/ml, no HQNO, vs DMSO-treated control, FIG. 3B",did not alter the synthesis of any macromolecule
same,intracellular SCVs CF07-S vs DMSO-treated control cells,[4],significantly less
same,Viability of S. aureus,[5]; 0 h,5.1 ± 0.4 Log10 CFU/ml
same,Viability of S. aureus,[5]; 24 h,9.64 ± 0.08 Log10 CFU/ml
same,zone of inhibition at 35 µg/disc,[6],21.5 mm
same,zone of inhibition at 35 µg/disc,[7],25.5 mm
same,zone of inhibition at 35 µg/disc,[8],25.5 mm
same,zone of inhibition at 35 µg/disc,[9],12.5 mm
same,MIC,[10],0.12 µg/mL
gentamicin,MIC of normal-growing isolates showing decreased susceptibility to gentamicin,[11]; ATCC 29213 exposed to gentamicin alone,1 to 4 µg/mL
same,MIC for gentamicin of SCVs,[11]; [14],4 to 8 µg/mL
same,MIC for gentamicin of normal-growing bacteria with decreased susceptibility,[11]; [14],1 to 4 µg/mL
same,"growth, visually evaluated",SCV CF07-S [12],does not inhibit the growth
same,"growth, visually evaluated",[13],inhibits the growth
